Patent publication US7018999B2, “Methods for the treatment and prevention of pain” (Cephalon, Inc., priority 2001, dated 2006)

Test system: formalin-induced behavioral response
Assay: formalin-induced behavioral response model (flinching/shaking, licking/biting; phase I and phase II)
[1] = dose 3 mg/kg subcutaneously two hours prior to formalin administration

Row | Structure (SMILES) | % Inhibition of Phase II [1] [%] | other results
1 | CC(C)Oc1ccc2c(c1)CCc1c-2c2c(c3c4ccccc4n(CCO)c13)CNC2=O [IX] | 37 ± 3 | 
2 | O=C1NCc2c1c1c3c4c2c2ccccc2n4C2CC[C@H](O2)C3c2ccccc2-1 (stereo partly drawn) [XIV] | 34 ± 3 | 
3 | COc1ccc2c(c1)Cc1c-2c2c(c3c4ccccc4n(CCO)c13)CNC2=O [XVI] | 22 ± 6 | 
4 | C[C@]1(O)C[C@H]2O[C@]1(C)n1c3ccccc3c3c4c(c5c6ccccc6n2c5c31)C(=O)NC4 [XIII] | 29 ± 5 | 
5 | CC(C)Oc1ccc2c(c1)CCc1c-2c2c(c3c1[nH]c1ccc(F)cc13)CNC2=O [VIII] |  | % Inhibition of Phase II (dose 1 mg/kg subcutaneously two hours prior to formalin administration): 29 ± 4%
6 | CCOCc1ccc2c(c1)c1c3c(c4c(c1n2CCCO)Cc1ccccc1-4)C(=O)NC3 [XV] |  | % Inhibition of Phase II (dose 10 mg/kg subcutaneously two hours prior to formalin administration): 19 ± 3%
